Changes are numbered by the printed parent chain.
Legend:
[1] = target: T1, URAT1 K393R mutant (Homo sapiens, UniProt Q96S37, K393R); experiment: 14C-uric acid binding assay with membrane protein; conditions: 1 μM BM, 1 μM verinurad, 10 μM lesinurad, 20 μM probenecid, 30 min, 25 μM 14C-uric acid
T1 sequence (Q96S37 1-553 K393R): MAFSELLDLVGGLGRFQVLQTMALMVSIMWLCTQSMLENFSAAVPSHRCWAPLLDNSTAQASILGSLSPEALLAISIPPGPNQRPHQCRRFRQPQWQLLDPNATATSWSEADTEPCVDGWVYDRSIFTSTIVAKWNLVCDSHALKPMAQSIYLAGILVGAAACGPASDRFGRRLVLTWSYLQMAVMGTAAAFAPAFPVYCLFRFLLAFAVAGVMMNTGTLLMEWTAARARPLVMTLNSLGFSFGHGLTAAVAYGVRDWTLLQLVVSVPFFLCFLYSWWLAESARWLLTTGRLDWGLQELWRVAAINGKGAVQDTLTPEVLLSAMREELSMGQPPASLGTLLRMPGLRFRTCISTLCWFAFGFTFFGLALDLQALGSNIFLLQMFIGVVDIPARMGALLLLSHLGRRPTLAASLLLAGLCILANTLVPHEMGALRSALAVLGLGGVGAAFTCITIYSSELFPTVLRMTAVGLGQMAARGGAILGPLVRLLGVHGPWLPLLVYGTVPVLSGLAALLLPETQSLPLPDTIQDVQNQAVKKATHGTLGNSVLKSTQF

[2] = target: T2, URAT1 K393A mutant (Homo sapiens, UniProt Q96S37, K393A); experiment: 14C-uric acid uptake assay in transfected HEK293 cells; format: cell-based
T2 sequence (Q96S37 1-553 K393A): T1 sequence (Q96S37 1-553 K393R) with R393A

[3] = target: T3, URAT1 K393E mutant (Homo sapiens, UniProt Q96S37, K393E); experiment: as above; format: cell-based
T3 sequence (Q96S37 1-553 K393E): T1 sequence (Q96S37 1-553 K393R) with R393E

[4] = target: T4, URAT1 K393H mutant (Homo sapiens, UniProt Q96S37, K393H); experiment: 14C-uric acid binding assay with membrane protein; conditions: 1 μM BM, 1 μM verinurad, 10 μM lesinurad, 20 μM probenecid, 30 min, 25 μM 14C-uric acid
T4 sequence (Q96S37 1-553 K393H): T1 sequence (Q96S37 1-553 K393R) with R393H

[5] = target: T5, URAT1 K393D mutant (Homo sapiens, UniProt Q96S37, K393D); experiment: 14C-uric acid uptake assay in transfected HEK293 cells; format: cell-based
T5 sequence (Q96S37 1-553 K393D): T1 sequence (Q96S37 1-553 K393R) with R393D

[6] = target: T4, URAT1 K393H mutant; experiment: as above; format: cell-based
[7] = target: T1, URAT1 K393R mutant; experiment: as above; format: cell-based
[8] = target: T6, wild-type hURAT1 (Homo sapiens, UniProt Q96S37); experiment: cell-based
T6 sequence (Q96S37 1-553): T1 sequence (Q96S37 1-553 K393R) with R393K

## CC(C)(Sc1ccncc1-c1ccc(C#N)c2ccccc12)C(=O)O [verinurad]
[1]
  Effect of inhibitor on 14C-uric acid binding compared with WT group: similar
[2]
  IC50: 0.42 ± 0.26 µM
[3]
  IC50: 0.36 ± 0.22 µM
[4]
  Effect of inhibitor on 14C-uric acid binding compared with WT group: similar
[5]
  IC50: 0.44 ± 0.21 µM
[6]
  IC50: 0.49 ± 0.24 µM
[7]
  IC50: 0.31 ± 0.29 µM
[8]
  IC50: 0.29 ± 0.12 µM

— paper PMC9521027 (ACS Omega, 2022)
